Source: US5877320A, “Process for the preparation of organotin compounds useful as cytotoxic agents” (priority 1995, dated 1999)

Tests used:
IGROV = assay: In-vitro cytotoxicity [ID50] against IGROV (ovarian cancer); format: cell-based, human; details: NCI-USA protocol
Text: (§1) The in-vitro cytotoxicity determined in terms of inhibition dose [ID50 ] of compounds having the formulae 8-11 prepared by the process of the present invention against […] different human cancer cell lines namely MCF7, EVSAT (Breast Cancer), WIDR (Colon Cancer), IGROV (Ovarian Cancer), M19MEL (Melanoma), A498 (Renal Cancer) and H226 (Nonsmall cell lung Cancer) have been measured following NCI-USA protocol [M. R. Boyd, "Status of the NCI preclinical antitumour drug discovery screen. Principles & practice of oncology 3, pp. 1-12 (1989)] alongwith the latest ID50 values of inorganic cancer drugs are presented in Table 1.

H226 = assay: In-vitro cytotoxicity [ID50] against H226 (nonsmall cell lung cancer); format: cell-based, human; details: NCI-USA protocol
Text: as §1

WIDR = assay: In-vitro cytotoxicity [ID50] against WIDR (colon cancer); format: cell-based, human; details: NCI-USA protocol
Text: as §1

M19MEL = assay: In-vitro cytotoxicity [ID50] against M19MEL (melanoma); format: cell-based, human; details: NCI-USA protocol
Text: as §1

EVSAT = assay: In-vitro cytotoxicity [ID50] against EVSAT (breast cancer); format: cell-based, human; details: NCI-USA protocol
Text: as §1

A498 = assay: In-vitro cytotoxicity [ID50] against A498 (renal cancer); format: cell-based, human; details: NCI-USA protocol
Text: as §1

MCF7 = assay: In-vitro cytotoxicity [ID50] against MCF7 (breast cancer); format: cell-based, human; details: NCI-USA protocol
Text: as §1

[1] = tested on: P388 lymphocytic leukemia; details: in words; literature; cited from earlier work

Row | Molecule | Anti-tumour activity [ID50] (IGROV) [µg/mL] | Anti-tumour activity [ID50] (H226) [µg/mL] | Anti-tumour activity [ID50] (WIDR) [µg/mL] | Anti-tumour activity [ID50] (M19MEL) [µg/mL] | Anti-tumour activity [ID50] (EVSAT) [µg/mL] | Anti-tumour activity [ID50] (A498) [µg/mL] | Anti-tumour activity [ID50] (MCF7) [µg/mL] | activity against P388 in mice [1]
1 | N.N.O=C([O-])C1(C(=O)[O-])CCC1.[Pt+2] [Carboplatin, reference compound] | 2.4 | 25 | 3.5 | 5.5 | 4.5 | 18 | 10.5 | –
2 | N.N.[Cl][Pt][Cl] [cis-platin, reference compound] | 0.227 | 3.158 | 1.55 | 0.78 | 0.92 | 1.2 | 1.4 | –
3 | [Cl][Sn]([Cl])([c]1ccccc1)[CH]1CCCCC1 [cyclohexyl-(phenyl)tindichloride] | – | – | – | – | – | – | – | inhibition of P-388 in mice
4 | bipyridine complex of dibenzyltindichloride [compound 11] | 0.08 | 0.35 | 0.8 | 0.32 | 0.15 | 0.16 | 0.12 | –
5 | bis(imidazole) complex of dibenzyltindichloride [compound 10] | 3.2 | 1.3 | 3.2 | 1.5 | 0.4 | 1 | 0.7 | –
6 | bis(indole) complex of dibenzyltindichloride [compound 8] | 0.11 | 0.2 | 0.85 | 0.4 | 0.15 | 0.2 | 0.15 | –
7 | bis(thiophene) complex of dibenzyltindichloride [compound 9] | 0.05 | 0.4 | 0.55 | 0.25 | 0.13 | 0.11 | 0.068 | –
8 | dibenzyl(phenanthroline)-tindichloride | – | – | – | – | – | – | – | inactive
